pEC50: −log10 of the molar value.
Tests used:
[1] = target: full-length HAQ STING (Homo sapiens (Human), UniProt Q86WV6, G230A/H232R/R293Q/R71H); test: 3H-cGAMP filtration binding assay (HAQ STING); details: competition with tritiated cGAMP, HAQ STING membrane
Source text: The ability of compounds to bind STING is quantified by the ability to compete with tritiated cGAMP ligand for human STING receptor membrane using a radioactive filter-binding assay. The binding assay employs STING receptor obtained from Hi-Five cell membranes overexpressing full-length HAQ STING prepared in-house and tritiated cGAMP ligand also purified in-house.
(§1) The ability of compounds to bind STING is quantified by their ability to compete with tritiated cGAMP ligand for human STING receptor membrane using a radioactive filter-binding assay. The binding assay employs STING receptor obtained from Trichoplusia ni cell membranes (T. ni; Expression Systems, cat #94-002F, www.exressionsystems.com) overexpressing full-length HAQ STING and tritiated cGAMP ligand.
The basic HAQ STING filtration assay protocol is as follows:
Compound and membrane then preincubated for 60 min at RT to allow compound binding to equilibrate. Following equilibration, 8 nM of [^3H]c-GAMP ligand was prepared by diluting into assay buffer, and 50 uL of this working stock was then manually added to each well of the assay plate. […] The filter plates were then dried at 55° C. for 30 min using a pressurized oven before 30 uL of ULTIMA GOLD F scintillate was added to each well. Tritium levels for each reaction well were then measured using a PerkinElmer TopCount plate reader.
(§2) After normalization to controls, the percent activity for each compound concentration was calculated by measuring the amount of remaining radioactivity. The plot of percent activity versus the log of compound concentration was fit with a 4-parameter dose response equation to calculate EC50 values.

[2] = target: full-length WT STING (Homo sapiens (Human), UniProt Q86WV6, H232R); test: 3H-cGAMP filtration binding assay (WT STING); details: for pEC50: competition with tritiated cGAMP, WT STING membrane; for inhibition at 20 µM: WT STING, compound at 20 uM
Sequence of full-length WT STING (Q86WV6 other isoform, or with tags, fused parts or gaps H232R (already in the parent)): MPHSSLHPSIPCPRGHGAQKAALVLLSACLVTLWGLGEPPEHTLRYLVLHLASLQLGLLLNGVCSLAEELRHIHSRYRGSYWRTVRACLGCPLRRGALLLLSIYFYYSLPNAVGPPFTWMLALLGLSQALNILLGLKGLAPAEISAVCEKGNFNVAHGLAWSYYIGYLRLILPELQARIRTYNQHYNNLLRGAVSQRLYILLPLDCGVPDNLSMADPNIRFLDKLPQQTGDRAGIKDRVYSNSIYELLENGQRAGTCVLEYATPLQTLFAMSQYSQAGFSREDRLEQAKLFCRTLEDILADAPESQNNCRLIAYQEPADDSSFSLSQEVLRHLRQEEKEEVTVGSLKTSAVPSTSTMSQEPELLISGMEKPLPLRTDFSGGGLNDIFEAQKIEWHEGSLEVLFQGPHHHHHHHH
Source text: as §1, with “www.expressionsystems.com)” for “www.exressionsystems.com)”, “WT” for “HAQ”
The basic WT STING filtration assay protocol is as follows:
The filter plates were then dried at 55° C. for 30 min using a pressurized VWR oven before 30 uL of ULTIMA GOLD F scintillate was added to each well. Tritium levels for each reaction well were then measured using a PerkinElmer TopCount plate reader.
as §2

[3] = system: THP1 cells; test: IFN-β secretion in THP1 cell culture (5 h); format: cell-based, human; details: relative to 30 uM cGAMP
Protocol: The ability of compounds to stimulate the secretion of interferon-beta from THP1 cells was measured using a human IFN-3 AlphaLISA kit (Perkin Elmer, Cat. No. AL265F). The basic protocol is as follows:
The cell viability and count was ascertained using a Beckman Coulter V-Cell XR cell counter. The cells suspension was centrifuged at 200×g for 5 min at RT. Cells were resuspended to a density of 0.8×10^6/mL in 37° C. assay medium. Subsequent liquid transfers were performed using either a Matrix electronic multichannel pipette or an Agilent Bravo Automated Liquid Handling Platform.
The assay was started by dispensing 40 μL of the previously prepared cell suspension into the wells of the plate containing compounds. After 5 h incubation at 37° C., 5% CO2 in a humidified atmosphere, the plate of cells and compounds was centrifuged at 200×g for 5 min at RT. […] To these supernatant-containing wells was added 10 μL of 5× Anti-Analyte Acceptor beads ([…] of AlphaLISA HiBlock Buffer) and incubated for 30 min at RT while shaking on an orbital plate shaker. To each well was added 10 μL of 5× Biotinylated Antibody Anti-analyte (5 nM in AlphaLISA HiBlock Buffer) and incubated on an orbital plate shaker for 60 min at RT or overnight at 4° C. To each well was added 25 μL of 2× SA-Donor beads ([…] in AlphaLISA HiBlock Buffer) and incubated for 30-45 min at RT in the dark while shaking on an orbital plate shaker. The plate was then read on a Perkin Elmer Envision (λex=680 nm, […]). The percent effect of the AlphaLISA signal at each compound concentration was calculated based on 30 uM cGAMP positive controls and 0.3% DMSO negative controls. The plot of percent effect versus the log of compound concentration was fit with a 4-parameter concentration response equation to calculate EC50 values.
Compounds of the disclosure were evaluated for IFN-3 secretion in THP1 cell culture as described above.

Sequence of full-length HAQ STING (Q86WV6 other isoform, or with tags, fused parts or gaps, stated change not applied): as the sequence (Q86WV6 other isoform, or with tags, fused parts or gaps H232R (already in the parent)) above, with R71H, G230A, R293Q counted along it

SMILES | pEC50 [1] | pEC50 [2] | % Effect at 30 μM relative to 2’3’-cGAMP [3] | inhibition at 20 µM [2]
COCC(CC(=O)c1cc2cc(OC)c(OC)cc2s1)C(=O)O (stereo not drawn) [Example 17, 4-(5,6-Dimethoxybenzo[b]thiophen-2-yl)-2-(methoxymethyl)-4-oxobutanoic acid] | 5.23 | 4.83 | 21% | –
C=Cc1cc2cc(C(=O)CCC(=O)O)sc2cc1OC [Example 18, 4-(6-Methoxy-5-vinylbenzo[b]thiophen-2-yl)-4-oxobutanoic acid] | 4.90 | – | 273% | 21%
COc1cc2sc(C(=O)CCC(=O)O)cc2cc1Br [Example 19, 4-(5-Bromo-6-methoxybenzo[b]thiophene-2-yl)-4-oxobutanoic acid] | 5.01 | – | 153% | 30%
C[C@@H](CC(=O)c1cc2cc(Cl)c(Cl)cc2s1)C(=O)O [Example 20] | 4.97 | – | 47% | 33%
CCc1cc2sc(C(=O)C[C@H](C)C(=O)O)cc2cc1OC [Example 21, (S)-4-(6-Ethyl-5-methoxybenzo[b]thiophen-2-yl)-2-methyl-4-oxobutanoic acid] | 5.20 | 4.84 | 162% | –
COc1cc2cc(C(=O)C[C@H](C)C(=O)O)sc2cc1C [Example 22, (S)-4-(5-methoxy-6-methylbenzo[b]thiophen-2-yl)-2-methyl-4-oxobutanoic acid] | 5.06 | 4.77 | 43% | –
COc1cc2cc(C(=O)CCC(=O)O)sc2cc1Cl [Example 23, 4-(6-Chloro-5-methoxybenzo[b]thiophen-2-yl)-4-oxobutanoic acid] | 5.22 | – | 191% | 37%
COc1cc2sc(C(=O)C[C@H](C)C(=O)O)cc2cc1Br [Example 24, (S)-4-(5-Bromo-6-methoxybenzo[b]thiophen-2-yl)-2-methyl-4-oxobutanoic acid] | 5.58 | 5.07 | 214% | –
COc1cc2sc(C(=O)CCC(=O)O)c(Cl)c2cc1OC [Example 27, 4-(3-chloro-5,6-dimethoxybenzo[b]thiophen-2-yl)-4-oxobutanoic acid] | 4.88 | – | 14% | 19%
COc1cc2sc(C(=O)C[C@H](C)C(=O)O)cc2cc1Cl [Example 28, (S)-4-(5-chloro-6-methoxybenzo[b]thiophen-2-yl)-2-methyl-4-oxobutanoic acid] | 5.71 | 5.03 | 86% | –
Cc1cc2cc(C(=O)C[C@H](C)C(=O)O)sc2cc1Br [Example 29, (S)-4-(6-bromo-5-methylbenzo[b]thiophen-2-yl)-2-methyl-4-oxobutanoic acid] | 4.86 | – | 9% | 16%
COc1cc2sc(C(=O)C[C@H](C)C(=O)O)cc2cc1F [Example 30, (S)-4-(5-fluoro-6-methoxybenzo[b]thiophen-2-yl)-2-methyl-4-oxobutanoic acid] | 5.30 | 4.73 | 15% | –
C[C@@H](CC(=O)c1cc2cc(Cl)c(Br)cc2s1)C(=O)O [Example 32, (S)-4-(6-bromo-5-chlorobenzo[b]thiophen-2-yl)-2-methyl-4-oxobutanoic acid] | 5.44 | 4.77 | 24% | –
CCOc1cc2sc(C(=O)C[C@H](C)C(=O)O)cc2cc1Cl [Example 33, (S)-4-(5-chloro-6-ethoxybenzo[b]thiophen-2-yl)-2-methyl-4-oxobutanoic acid] | 5.19 | – | 25% | 30%
Cc1cc2sc(C(=O)C[C@H](C)C(=O)O)cc2cc1Br [Example 34, (S)-4-(5-bromo-6-methylbenzo[b]thiophen-2-yl)-2-methyl-4-oxobutanoic acid] | 4.98 | – | 34% | 18%
COc1cc2cc(C(=O)CC(C)C(=O)O)sc2cc1OC (stereo not drawn) [Example 35, 4-(5,6-dimethoxybenzo[b]thiophen-2-yl)-2-methyl-4-oxobutanoic acid] | 5.26 | 5.12 | 57% | –
C#Cc1cc2cc(C(=O)CCC(=O)O)sc2cc1OC [Example 36, 4-(5-Ethynyl-6-methoxybenzo[b]thiophen-2-yl)-4-oxobutanoic acid] | 4.84 | – | 11% | 9%
C=Cc1cc2cc(C(=O)C[C@H](C)C(=O)O)sc2cc1OC [Example 41, (S)-4-(6-methoxy-5-vinylbenzo[b]thiophen-2-yl)-2-methyl-4-oxobutanoic acid] | 5.24 | 4.83 | 312% | –
COc1cc2cc(C(=O)C[C@H](C)C(=O)O)sc2cc1O [Example 43, (S)-4-(6-hydroxy-5-methoxybenzo[b]thiophen-2-yl)-2-methyl-4-oxobutanoic acid] | 5.92 | 5.39 | 56% | –
COc1cc2cc(C(=O)C[C@H](C)C(=O)O)sc2cc1CCF [Example 46, (2S)-4-[6-(2-fluoroethyl)-5-methoxy-1-benzothiophen-2-yl]-2-methyl-4-oxobutanoic acid] | 5.13 | – | 205% | 24%
CCOC(=O)C(C)(O)CC(=O)c1cc2cc(OC)c(OC)cc2s1 (stereo not drawn) [Example 48, Ethyl 4-(5,6-dimethoxybenzo[b]thiophen-2-yl)-2-hydroxy-2-methyl-4-oxobutanoate] | 4.72 | – | 71% | 23%
CCC(CC(=O)c1cc2c(F)c(OC)c(OC)cc2s1)C(=O)O (stereo not drawn) [Example 50, 2-ethyl-4-(4-fluoro-5,6-dimethoxybenzo[b]thiophen-2-yl)-4-oxobutanoic acid] | 6.05 | 5.67 | 115% | –
COc1cc2sc(C(=O)[C@H]3C[C@H]3C(=O)O)cc2c(F)c1OC [Example 51, (1R,2S)-2-(4-fluoro-5,6-dimethoxybenzo[b]thiophene-2-carbonyl)cyclopropane-1-carboxylic acid] | 4.75 | – | 31% | 3%
COc1cc2sc(C(=O)[C@@H]3C[C@@H]3C(=O)O)cc2c(F)c1OC [Example 52, (1S,2R)-2-(4-fluoro-5,6-dimethoxybenzo[b]thiophene-2-carbonyl)cyclopropane-1-carboxylic acid] | 6.22 | – | 142% | 101%
COc1cc2cc(C(=O)CCC(=O)O)sc2cc1OC(F)F [Example 53, 4-(6-(difluoromethoxy)-5-methoxybenzo[b]thiophen-2-yl)-4-oxobutanoic acid] | 4.86 | – | 182% | 7%

Reference: patent US10730849B2, “Benzo[b]thiophene compounds as STING agonists” (MERCK SHARP & DOHME CORP., priority 2016, dated 2020)
